Measured values: PMC5856591 (Cell chemical biology, 2018)

What was measured:
[1] = test system: S. cerevisiae wildtype BY4743; assay: growth-inhibitory potency on wildtype S. cerevisiae; settings: Saccharomyces cerevisiae, read-out: IC50 [μM] S. cerevisiae wildtype, cell based growth assay, wildtype
[2] = kinetic aqueous solubility; assay type: physicochemical; settings: pH 7.4
PITPα = biological target: T1, PITPα (Mus musculus, UniProt P53810); assay: in vitro [3H]-PtdIns lipid transfer assay, mammalian PITPα; settings: 20 μM
T1 sequence (P53810 1-271): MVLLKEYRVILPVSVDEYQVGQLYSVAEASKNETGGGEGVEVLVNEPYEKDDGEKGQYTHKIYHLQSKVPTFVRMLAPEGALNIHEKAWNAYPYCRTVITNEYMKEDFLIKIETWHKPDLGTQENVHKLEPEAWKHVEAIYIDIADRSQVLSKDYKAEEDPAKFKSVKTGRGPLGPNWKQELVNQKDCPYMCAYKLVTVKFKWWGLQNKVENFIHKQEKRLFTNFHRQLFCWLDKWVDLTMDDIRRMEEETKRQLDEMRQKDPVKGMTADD

[3] = test system: S. cerevisiae SEC14/sec14; assay: growth assay with heterozygous SEC14 deletion strain; assay type: cell-based, Saccharomyces cerevisiae; settings: for IC50: Saccharomyces cerevisiae, SEC14/SEC14, read-out: IC50 [μM] S. cerevisiae SEC14/sec14
Sec14p of C. glabrata = Sec14p of C. glabrata (Candida glabrata, UniProt P53989); assay: in vitro [3H]-PtdIns lipid transfer assay, C. glabrata Sec14p; assay type: biochemical
Chain of Sec14p of C. glabrata (P53989 whole entry): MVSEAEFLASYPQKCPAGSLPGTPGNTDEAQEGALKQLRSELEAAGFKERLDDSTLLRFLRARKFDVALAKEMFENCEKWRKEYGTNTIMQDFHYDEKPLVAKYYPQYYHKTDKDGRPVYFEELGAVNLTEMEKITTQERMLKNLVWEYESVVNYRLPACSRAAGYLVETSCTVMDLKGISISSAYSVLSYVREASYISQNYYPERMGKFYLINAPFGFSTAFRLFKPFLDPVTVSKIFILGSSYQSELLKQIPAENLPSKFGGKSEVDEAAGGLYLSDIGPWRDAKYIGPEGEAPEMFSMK

HCT116 cells = assay: CellTiter-Glo luminescent cell viability assay; assay type: cell-based; settings: Homo sapiens, HCT-116, 72 h, read-out: IC50 [μM] HCT116
Sec14p = Sec14p (Saccharomyces cerevisiae, UniProt P24280); assay: in vitro [3H]-PtdIns lipid transfer assay, recombinant Sec14p; assay type: biochemical, S. cerevisiae; settings: for inhibition of Sec14p-mediated PtdIns-transfer (in words): 20 μM SMI end-point assay
Chain of Sec14p (P24280 whole entry): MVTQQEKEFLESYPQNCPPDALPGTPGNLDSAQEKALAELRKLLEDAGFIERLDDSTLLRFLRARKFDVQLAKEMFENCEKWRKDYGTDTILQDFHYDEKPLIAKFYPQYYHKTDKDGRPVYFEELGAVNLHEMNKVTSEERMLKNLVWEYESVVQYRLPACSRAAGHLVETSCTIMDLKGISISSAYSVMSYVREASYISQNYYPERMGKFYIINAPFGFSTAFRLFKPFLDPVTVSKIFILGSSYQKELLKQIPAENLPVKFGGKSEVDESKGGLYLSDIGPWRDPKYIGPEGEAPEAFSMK

[4] = test system: cki1 and kes1 “bypass Sec14p” mutants; assay: spot growth assay of bypass Sec14p mutants; assay type: cell-based, Saccharomyces cerevisiae; settings: 20 μM on agar plates
S. cerevisiae BY4743Δ8 [5] = assay: growth assay, wildtype versus efflux-deficient wildtypeΔ8; assay type: cell-based, Saccharomyces cerevisiae; settings: ratio of growth IC50 wildtype to wildtypeΔ8
Sec14p of C. albicans = Sec14p of C. albicans (Candida albicans, UniProt P46250); assay: in vitro [3H]-PtdIns lipid transfer assay, C. albicans Sec14p; assay type: biochemical; settings: for inhibition of PtdIns-transfer by C. albicans protein (in words): tested concentration range
Chain of Sec14p of C. albicans (P46250 whole entry): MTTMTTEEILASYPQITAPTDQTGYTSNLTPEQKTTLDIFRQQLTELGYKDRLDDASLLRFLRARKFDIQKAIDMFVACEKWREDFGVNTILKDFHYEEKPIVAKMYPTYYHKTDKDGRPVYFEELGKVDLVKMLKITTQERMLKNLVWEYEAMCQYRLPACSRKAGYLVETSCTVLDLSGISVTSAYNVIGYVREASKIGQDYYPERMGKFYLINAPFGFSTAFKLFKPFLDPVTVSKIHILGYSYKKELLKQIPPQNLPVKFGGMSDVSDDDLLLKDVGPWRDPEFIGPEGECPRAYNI

[6] = test system: mutant Sec14ps (Y151H, V154G, V155A, S173L, S201G); assay: [3H]-PtdIns transfer assay with recombinant mutant Sec14ps; assay type: biochemical, S. cerevisiae; settings: all mutant proteins but one
Sec14p^V155A = assay: [3H]-PtdIns transfer assay with recombinant Sec14p V155A; assay type: biochemical, S. cerevisiae
S. cerevisiae BY4743Δ8 [7] = assay: MIC on solid medium; assay type: cell-based, Saccharomyces cerevisiae; settings: 72 hours, 30°C

Structure (SMILES) | IC50 [1] [µM] | solubility in pure aqueous solutions (in words) [2] | inhibition of PtdIns-transfer by mammalian PITPα (in words) (PITPα) | fitness of SEC14/sec14Δ heterozygote relative to isogenic wildtype (in words) [3] | IC50 [3] [µM] | IC50 (Sec14p of C. glabrata) [µM] | IC50 (HCT116 cells) [µM] | IC50 (Sec14p) [µM] | inhibition of Sec14p-mediated PtdIns-transfer (in words) (Sec14p) | growth of bypass Sec14p mutants under compound challenge (in words) [4] | fold IC50 shift S. cerevisiae wildtype/wildtypeΔ8 (S. cerevisiae BY4743Δ8 [5]) [x fold] | IC50 (Sec14p of C. albicans) [µM] | inhibition of PtdIns-transfer by C. albicans protein (in words) (Sec14p of C. albicans) | sensitivity of mutant Sec14ps other than V155A (in words) [6] | increase in IC50 of Sec14p^V155A relative to wild-type Sec14p (Sec14p^V155A) [fold] | Minimal inhibitory concentration S. cerevisiae BY4743Δ8 (S. cerevisiae BY4743Δ8 [7]) [µM]
O=C(NCc1ccc2c(c1)OCO2)c1ncc(Br)cc1F [Compound 2] | 28.5 | better solubility than compound 3 | no such inhibitory effects | decreased fitness | 9.4 | 10.9 | > 100 | 6.7 | clear inhibition | indifferent to challenge | 2.7 | > 100 | did not inhibit |  |  | 
O=C(NCc1ccc2c(c1)OCO2)c1ccc(Br)cc1F [Compound 3] | 7 |  | no such inhibitory effects | decreased fitness | 1.7 |  | > 100 |  | clear inhibition | indifferent to challenge | 2.8 |  | did not inhibit | essentially indifferent | 17 | 
CC[C@@H]([C@H](C)O)n1ncn(-c2ccc(N3CCN(c4ccc(OC[C@@H]5CO[C@@](Cn6cncn6)(c6ccc(F)cc6F)C5)cc4)CC3)cc2)c1=O [Posaconazole] |  |  |  |  |  |  |  |  |  |  |  |  |  |  |  | <0.3
